{"source": "patent US20230085307A1", "about": "“PYRIDAZINONE COMPOUND AND HERBICIDE” (NISSAN CHEMICAL CORPORATION, priority 2019, published 2023)", "key": {"chickweed": {"system": "chickweed", "experiment": "Test Example 5: herbicidal effect by foliage application, plastic box (Table 20, symbol P)", "format": "in vivo, common chickweed (Stellaria media)", "procedure,_shortened": "(§1)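 Post-emergence foliar test in sterilized diluvial soil. Compound applied as water-diluted emulsion at a predetermined rate to 14-day-old plants; evaluation at three weeks.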"}, "rice flat sedge": {"system": "rice flat sedge", "experiment": "Test Example 3: herbicidal effect by foliage application, Wagner pot (Table 18, symbol E)", "format": "in vivo, rice flat sedge (Cyperus iria)", "conditions": "320 g/ha", "procedure,_shortened": "(§2)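 Plants were sown in alluvial soil held under 0.1–0.5 cm standing water and grown 14 days in a greenhouse at 25–30 °C. An emulsifiable formulation, water-diluted to the set dose, was then sprayed onto the foliage, and effects were scored three weeks later using previously defined criteria.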"}, "wild oat": {"system": "wild oat", "experiment": "Test Example 5: herbicidal effect by foliage application, plastic box (Table 20, symbol I)", "format": "in vivo, wild oat (Avena fatua)", "procedure,_shortened": "as §1"}, "false cleavers": {"system": "false cleavers", "experiment": "Test Example 5: herbicidal effect by foliage application, plastic box (Table 20, symbol Q)", "format": "in vivo, false cleavers (Galium spurium)", "procedure,_shortened": "as §1"}, "blackgrass": {"system": "blackgrass", "experiment": "Test Example 5: herbicidal effect by foliage application, plastic box (Table 20, symbol J)", "format": "in vivo, blackgrass (Alopecurus myosuroides)", "procedure,_shortened": "as §1"}, "Chinese sprangletop": {"system": "Chinese sprangletop", "experiment": "Test Example 3: herbicidal effect by foliage application, Wagner pot (Table 18, symbol D)", "format": "in vivo, chinese sprangletop (Leptochloa chinensis)", "conditions": "320 g/ha", "procedure,_shortened": "as §2"}, "barnyard grass [1]": {"system": "barnyard grass", "experiment": "Test Example 3: herbicidal effect by foliage application, Wagner pot (Table 18, symbol H)", "format": "in vivo, barnyard grass (Echinochloa crus-galli)", "conditions": "320 g/ha", "procedure,_shortened": "as §2"}, "barnyard grass [2]": {"system": "barnyard grass", "experiment": "Test Example 5: herbicidal effect by foliage application, plastic box (Table 20, symbol H)", "format": "in vivo, barnyard grass (Echinochloa crus-galli)", "procedure,_shortened": "as §1"}, "persian speedwell": {"system": "persian speedwell", "experiment": "Test Example 5: herbicidal effect by foliage application, plastic box (Table 20, symbol R)", "format": "in vivo, Persian speedwell (Veronica persica)", "procedure,_shortened": "as §1"}, "lambsquarters": {"system": "lambsquarters", "experiment": "Test Example 5: herbicidal effect by foliage application, plastic box (Table 20, symbol O)", "format": "in vivo, lambsquarters (Chenopodium album)", "procedure,_shortened": "as §1"}, "Italian ryegrass": {"system": "Italian ryegrass", "experiment": "Test Example 5: herbicidal effect by foliage application, plastic box (Table 20, symbol K)", "format": "in vivo, Italian ryegrass (Lolium multiflorum)", "procedure,_shortened": "as §1"}, "green foxtail": {"system": "green foxtail", "experiment": "Test Example 5: herbicidal effect by foliage application, plastic box (Table 20, symbol G)", "format": "in vivo, green foxtail (Setaria viridis)", "procedure,_shortened": "as §1"}, "velvetleaf": {"system": "velvetleaf", "experiment": "Test Example 5: herbicidal effect by foliage application, plastic box (Table 20, symbol M)", "format": "in vivo, velvetleaf (Abutilon theophrasti)", "procedure,_shortened": "as §1"}, "redroot pigweed": {"system": "redroot pigweed", "experiment": "Test Example 5: herbicidal effect by foliage application, plastic box (Table 20, symbol N)", "format": "in vivo, redroot pigweed (Amaranthus retroflexus)", "procedure,_shortened": "as §1"}, "windgrass": {"system": "windgrass", "experiment": "Test Example 5: herbicidal effect by foliage application, plastic box (Table 20, symbol L)", "format": "in vivo, windgrass (Apera spica-venti)", "procedure,_shortened": "as §1"}, "southern crabgrass": {"system": "southern crabgrass", "experiment": "Test Example 5: herbicidal effect by foliage application, plastic box (Table 20, symbol F)", "format": "in vivo, southern crabgrass (Digitaria ciliaris)", "procedure,_shortened": "as §1"}, "[3]": {"conditions": "amount of applied herbicide 320 g/ha, foliage application after 14-day growth, evaluated three weeks after application"}, "[4]": {"conditions": "foliage application, AAH 320 g/ha, three weeks after application"}, "[5]": {"conditions": "320 g/ha, foliage application after 14-day growth, evaluated three weeks after application"}}}
{"smiles": "CSc1ccccc1-c1sc2c(Cl)cccc2c1-c1c(O)c(C)nn(C)c1=O", "note": "[4-086]", "values": [{"measurement": "Herbicidal effect by foliage application, P: chickweed", "setting": "chickweed; [3]", "result": "5 (Herbicidal rate of 90% or more (almost completely withered))"}, {"measurement": "herbicidal effect on rice flat sedge (E)", "setting": "rice flat sedge", "result": "3 (Herbicidal rate of 40% or more and less than 70%)"}, {"measurement": "Herbicidal effect by foliage application, I: wild oat", "setting": "wild oat; [3]", "result": "0 (Herbicidal rate of 5% or less (almost no effect))"}, {"measurement": "Herbicidal effect by foliage application, Q: false cleavers", "setting": "false cleavers; [3]", "result": "1 (Herbicidal rate of 5% or more and less than 20%)"}, {"measurement": "Herbicidal effect by foliage application, J: blackgrass", "setting": "blackgrass; [3]", "result": "0 (Herbicidal rate of 5% or less (almost no effect))"}, {"measurement": "herbicidal effect on Chinese sprangletop (D)", "setting": "Chinese sprangletop", "result": "3 (Herbicidal rate of 40% or more and less than 70%)"}, {"measurement": "herbicidal effect on barnyard grass (H)", "setting": "barnyard grass [1]", "result": "4 (Herbicidal rate of 70% or more and less than 90%)"}, {"measurement": "Herbicidal effect by foliage application, H: barnyard grass", "setting": "barnyard grass [2]; [3]", "result": "1 (Herbicidal rate of 5% or more and less than 20%)"}, {"measurement": "Herbicidal effect by foliage application, R: persian speedwell", "setting": "persian speedwell; [3]", "result": "5 (Herbicidal rate of 90% or more (almost completely withered))"}, {"measurement": "Herbicidal effect by foliage application, O: lambsquarters", "setting": "lambsquarters; [3]", "result": "3 (Herbicidal rate of 40% or more and less than 70%)"}, {"measurement": "Herbicidal effect by foliage application, K: Italian ryegrass", "setting": "Italian ryegrass; [3]", "result": "0 (Herbicidal rate of 5% or less (almost no effect))"}, {"measurement": "Herbicidal effect by foliage application, G: green foxtail", "setting": "green foxtail; [3]", "result": "3 (Herbicidal rate of 40% or more and less than 70%)"}, {"measurement": "Herbicidal effect by foliage application, M: velvetleaf", "setting": "velvetleaf; [3]", "result": "3 (Herbicidal rate of 40% or more and less than 70%)"}, {"measurement": "Herbicidal effect by foliage application, N: redroot pigweed", "setting": "redroot pigweed; [3]", "result": "4 (Herbicidal rate of 70% or more and less than 90%)"}, {"measurement": "Herbicidal effect by foliage application, L: windgrass", "setting": "windgrass; [3]", "result": "4 (Herbicidal rate of 70% or more and less than 90%)"}, {"measurement": "Herbicidal effect by foliage application, F: southern crabgrass", "setting": "southern crabgrass; [3]", "result": "0 (Herbicidal rate of 5% or less (almost no effect))"}]}
{"smiles": "Cc1nn(C)c(=O)c(-c2c(-c3ccc(Oc4ccccc4)cc3)sc3ccccc23)c1O", "note": "[1-149]", "values": [{"measurement": "P: chickweed, herbicidal effect", "setting": "chickweed; [4]", "result": "3 (Herbicidal rate of 40% or more and less than 70%)"}, {"measurement": "herbicidal effect on E (rice flat sedge), rating 0-5", "setting": "rice flat sedge", "result": "5 (Herbicidal rate of 90% or more (almost completely withered))"}, {"measurement": "I: wild oat, herbicidal effect", "setting": "wild oat; [4]", "result": "0 (Herbicidal rate of 5% or less (almost no effect))"}, {"measurement": "Q: false cleavers, herbicidal effect", "setting": "false cleavers; [4]", "result": "5 (Herbicidal rate of 90% or more (almost completely withered))"}, {"measurement": "J: blackgrass, herbicidal effect", "setting": "blackgrass; [4]", "result": "0 (Herbicidal rate of 5% or less (almost no effect))"}, {"measurement": "herbicidal effect on D (Chinese sprangletop), rating 0-5", "setting": "Chinese sprangletop", "result": "3 (Herbicidal rate of 40% or more and less than 70%)"}, {"measurement": "herbicidal effect on H (barnyard grass), rating 0-5", "setting": "barnyard grass [1]", "result": "3 (Herbicidal rate of 40% or more and less than 70%)"}, {"measurement": "H: barnyard grass, herbicidal effect", "setting": "barnyard grass [2]; [4]", "result": "3 (Herbicidal rate of 40% or more and less than 70%)"}, {"measurement": "R: persian speedwell, herbicidal effect", "setting": "persian speedwell; [4]", "result": "5 (Herbicidal rate of 90% or more (almost completely withered))"}, {"measurement": "O: lambsquarters, herbicidal effect", "setting": "lambsquarters; [4]", "result": "4 (Herbicidal rate of 70% or more and less than 90%)"}, {"measurement": "K: Italian ryegrass, herbicidal effect", "setting": "Italian ryegrass; [4]", "result": "0 (Herbicidal rate of 5% or less (almost no effect))"}, {"measurement": "G: green foxtail, herbicidal effect", "setting": "green foxtail; [4]", "result": "4 (Herbicidal rate of 70% or more and less than 90%)"}, {"measurement": "M: velvetleaf, herbicidal effect", "setting": "velvetleaf; [4]", "result": "2 (Herbicidal rate of 20% or more and less than 40%)"}, {"measurement": "N: redroot pigweed, herbicidal effect", "setting": "redroot pigweed; [4]", "result": "5 (Herbicidal rate of 90% or more (almost completely withered))"}, {"measurement": "L: windgrass, herbicidal effect", "setting": "windgrass; [4]", "result": "0 (Herbicidal rate of 5% or less (almost no effect))"}, {"measurement": "F: southern crabgrass, herbicidal effect", "setting": "southern crabgrass; [4]", "result": "3 (Herbicidal rate of 40% or more and less than 70%)"}]}
{"smiles": "COc1cccc(-c2sc3c(Cl)cccc3c2-c2c(O)c(C)nn(C)c2=O)c1", "note": "[4-064]", "values": [{"measurement": "herbicidal effect on P: chickweed (evaluation grade 0-5)", "setting": "chickweed; [5]", "result": "5 (Herbicidal rate of 90% or more (almost completely withered))"}, {"measurement": "herbicidal effect on rice flat sedge (E)", "setting": "rice flat sedge", "result": "4 (Herbicidal rate of 70% or more and less than 90%)"}, {"measurement": "herbicidal effect on I: wild oat (evaluation grade 0-5)", "setting": "wild oat; [5]", "result": "0 (Herbicidal rate of 5% or less (almost no effect))"}, {"measurement": "herbicidal effect on Q: false cleavers (evaluation grade 0-5)", "setting": "false cleavers; [5]", "result": "1 (Herbicidal rate of 5% or more and less than 20%)"}, {"measurement": "herbicidal effect on J: blackgrass (evaluation grade 0-5)", "setting": "blackgrass; [5]", "result": "0 (Herbicidal rate of 5% or less (almost no effect))"}, {"measurement": "herbicidal effect on Chinese sprangletop (D)", "setting": "Chinese sprangletop", "result": "3 (Herbicidal rate of 40% or more and less than 70%)"}, {"measurement": "herbicidal effect on barnyard grass (H)", "setting": "barnyard grass [1]", "result": "4 (Herbicidal rate of 70% or more and less than 90%)"}, {"measurement": "herbicidal effect on H: barnyard grass (evaluation grade 0-5)", "setting": "barnyard grass [2]; [5]", "result": "1 (Herbicidal rate of 5% or more and less than 20%)"}, {"measurement": "herbicidal effect on R: persian speedwell (evaluation grade 0-5)", "setting": "persian speedwell; [5]", "result": "5 (Herbicidal rate of 90% or more (almost completely withered))"}, {"measurement": "herbicidal effect on O: lambsquarters (evaluation grade 0-5)", "setting": "lambsquarters; [5]", "result": "3 (Herbicidal rate of 40% or more and less than 70%)"}, {"measurement": "herbicidal effect on K: Italian ryegrass (evaluation grade 0-5)", "setting": "Italian ryegrass; [5]", "result": "3 (Herbicidal rate of 40% or more and less than 70%)"}, {"measurement": "herbicidal effect on G: green foxtail (evaluation grade 0-5)", "setting": "green foxtail; [5]", "result": "3 (Herbicidal rate of 40% or more and less than 70%)"}, {"measurement": "herbicidal effect on M: velvetleaf (evaluation grade 0-5)", "setting": "velvetleaf; [5]", "result": "3 (Herbicidal rate of 40% or more and less than 70%)"}, {"measurement": "herbicidal effect on N: redroot pigweed (evaluation grade 0-5)", "setting": "redroot pigweed; [5]", "result": "5 (Herbicidal rate of 90% or more (almost completely withered))"}, {"measurement": "herbicidal effect on L: windgrass (evaluation grade 0-5)", "setting": "windgrass; [5]", "result": "5 (Herbicidal rate of 90% or more (almost completely withered))"}, {"measurement": "herbicidal effect on F: southern crabgrass (evaluation grade 0-5)", "setting": "southern crabgrass; [5]", "result": "1 (Herbicidal rate of 5% or more and less than 20%)"}]}
